{
  "source": "patent US9334246B2",
  "about": "“Substituted triazines for malaria treatment and chemoprophylaxis” (The United States of America, as represented by the …, priority 2013, dated 2016)",
  "key": {"P. berghei": {"test_system": "P. berghei", "assay": "Thompson Test, in vivo mouse malaria assay", "design": "species or system mice (ICR strain)"}, "P. falciparum W2": {"test_system": "P. falciparum W2", "assay": "Malaria SYBR Green Fluorescence Assay, W2 strain", "type": "cell-based, Plasmodium falciparum", "settings": "for W2: SYBR Green Assay"}, "P. falciparum D6": {"test_system": "P. falciparum D6", "assay": "Malaria SYBR Green Fluorescence Assay, D6 strain", "type": "cell-based, Plasmodium falciparum", "settings": "for D6: SYBR Green Assay"}, "P. falciparum C235": {"test_system": "P. falciparum C235", "assay": "Malaria SYBR Green Fluorescence Assay, C235 strain", "type": "cell-based, Plasmodium falciparum", "settings": "for C235: SYBR Green Assay"}, "[1]": {"biological_target": "T1, hERG potassium ion channel (Homo sapiens, UniProt Q12809)", "T1 sequence (Q12809 whole entry)": "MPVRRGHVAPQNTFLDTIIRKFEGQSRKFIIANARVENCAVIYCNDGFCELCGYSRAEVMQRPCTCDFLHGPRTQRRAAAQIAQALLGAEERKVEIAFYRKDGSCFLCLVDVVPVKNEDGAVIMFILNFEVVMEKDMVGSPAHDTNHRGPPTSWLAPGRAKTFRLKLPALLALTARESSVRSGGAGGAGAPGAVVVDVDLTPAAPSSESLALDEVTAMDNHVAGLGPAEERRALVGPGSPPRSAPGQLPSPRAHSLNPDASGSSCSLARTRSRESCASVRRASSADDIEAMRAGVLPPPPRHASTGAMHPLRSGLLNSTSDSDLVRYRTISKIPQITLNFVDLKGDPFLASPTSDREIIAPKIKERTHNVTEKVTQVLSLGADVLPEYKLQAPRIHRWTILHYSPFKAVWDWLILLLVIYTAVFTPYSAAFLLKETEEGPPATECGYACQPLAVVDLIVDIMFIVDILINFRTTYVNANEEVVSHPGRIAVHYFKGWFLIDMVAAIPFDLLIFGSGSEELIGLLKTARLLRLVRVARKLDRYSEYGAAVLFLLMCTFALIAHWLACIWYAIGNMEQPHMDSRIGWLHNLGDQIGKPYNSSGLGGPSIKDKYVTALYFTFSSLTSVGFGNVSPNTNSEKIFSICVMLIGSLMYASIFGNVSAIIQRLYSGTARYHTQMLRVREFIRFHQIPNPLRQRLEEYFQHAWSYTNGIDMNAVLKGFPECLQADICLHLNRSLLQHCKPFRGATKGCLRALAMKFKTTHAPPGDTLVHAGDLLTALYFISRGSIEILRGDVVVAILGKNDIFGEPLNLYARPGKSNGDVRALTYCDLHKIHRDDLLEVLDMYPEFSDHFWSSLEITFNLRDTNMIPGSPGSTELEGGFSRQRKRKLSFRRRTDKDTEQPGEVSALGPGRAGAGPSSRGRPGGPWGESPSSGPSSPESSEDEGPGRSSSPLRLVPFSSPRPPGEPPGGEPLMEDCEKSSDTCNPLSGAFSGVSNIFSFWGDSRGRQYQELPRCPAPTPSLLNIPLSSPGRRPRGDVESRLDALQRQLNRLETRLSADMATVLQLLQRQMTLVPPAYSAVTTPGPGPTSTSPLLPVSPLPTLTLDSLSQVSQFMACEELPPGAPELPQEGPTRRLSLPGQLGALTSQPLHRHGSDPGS", "assay": "hERG patch clamp assay (% inhibition at 10 μM)"}, "[2]": {"biological_target": "T1, hERG potassium ion channel", "settings": "10 μM"}, "[3]": {"settings": "in vivo"}, "[4]": {"test_system": "drug resistant strains of P. falciparum", "assay": "in vitro profiling against different drug resistant strains of P. falciparum", "type": "cell-based, Plasmodium falciparum"}, "hERG channel": {"biological_target": "hERG channel (Homo sapiens, UniProt Q12809)", "sequence (Q12809 whole entry)": "as above"}},
  "note": "Like-named read-outs stand apart in the source and are kept apart here.",
  "data": [
    {"compound": "CC(C)(N)CNc1nc(-c2ccc(C(Cl)(Cl)Cl)cc2)nc(C(Cl)(Cl)Cl)n1", "note": "[Compound 55]", "values": [
      {"measurement": "In vivo Results Thompson Assay (n/N Cures or Suppressive)", "setting": "P. berghei; (40 × 3): 40 mg/kg for 3 days", "value": "3/5"},
      {"measurement": "In vivo Results Thompson Assay (n/N Cures or Suppressive)", "setting": "P. berghei; (80 × 3): 80 mg/kg for 3 days", "value": "5/5"},
      {"measurement": "W2", "setting": "P. falciparum W2", "value": 30, "unit": "ng/mL"},
      {"measurement": "D6", "setting": "P. falciparum D6", "value": 46, "unit": "ng/mL"},
      {"measurement": "C235", "setting": "P. falciparum C235", "value": 89, "unit": "ng/mL"},
      {"measurement": "hERG", "setting": "[1]; % inhibition at 10 μM, patch clamp", "value": 17, "unit": "%"},
      {"measurement": "Rhesus Results", "setting": "P. cynomolgi; 65 mg/kg once weekly", "value": "prophylaxis"},
      {"measurement": "Rhesus Results", "setting": "P. cynomolgi; 65 mg/kg/day × 7 days", "value": "malaria cures"}
    ]},
    {"compound": "CC(C)(C)c1ccc(cc1)c2nc(nc(n2)C(Cl)(Cl)Cl)N3CC4CC3CN4 [Compound 721]", "values": [
      {"measurement": "In vivo Results Thompson Assay (n/N Cures or Suppressive)", "setting": "P. berghei; (80 × 3): 80 mg/kg for 3 days", "value": "(80 × 3) 2/5 Cures"},
      {"measurement": "W2", "setting": "P. falciparum W2", "value": 69, "unit": "ng/mL"},
      {"measurement": "D6", "setting": "P. falciparum D6", "value": 142, "unit": "ng/mL"},
      {"measurement": "C235", "setting": "P. falciparum C235", "value": 126, "unit": "ng/mL"},
      {"measurement": "hERG", "setting": "[1]; hERG activity as % inhibition", "value": 2, "unit": "%"},
      {"measurement": "Rhesus Results", "setting": "P. cynomolgi; 65 mg/kg once weekly", "value": "prophylaxis"},
      {"measurement": "Rhesus Results", "setting": "P. cynomolgi; 65 mg/kg/day × 7 days", "value": "malaria cures"}
    ]},
    {"compound": "CC(CNc1nc(Nc2ccc(Cl)c(Cl)c2)nc(n1)C(Cl)(Cl)Cl)N(C)C [Compound 641]", "values": [
      {"measurement": "In vivo Results Thompson Assay (n/N Cures or Suppressive)", "setting": "P. berghei; (40 × 3): 40 mg/kg for 3 days", "value": "2/5"},
      {"measurement": "In vivo Results Thompson Assay (n/N Cures or Suppressive)", "setting": "P. berghei; (80 × 3): 80 mg/kg for 3 days", "value": "(80 × 3) 5/5 Cures"},
      {"measurement": "In vivo Results Thompson Assay (n/N Cures)", "setting": "P. berghei; (160 × 1): single 160 mg/kg PO dose", "value": "5/5"},
      {"measurement": "hERG (% inhibition)", "setting": "[2]", "value": 117, "unit": "%"},
      {"measurement": "mouse half-life", "setting": "[3]; po, 80 mg/kg", "value": 8, "unit": "h"},
      {"measurement": "Cmax", "setting": "[3]; mouse", "value": "> 600", "unit": "nM"},
      {"measurement": "in vitro potency", "setting": "[4]", "value": "excellent in vitro potency"},
      {"measurement": "IC50", "setting": "hERG channel", "value": 600, "unit": "nM"},
      {"measurement": "W2 (SYBR Green Assay IC50)", "setting": "P. falciparum W2", "value": 0.005, "unit": "µg/mL"},
      {"measurement": "D6 (SYBR Green Assay IC50)", "setting": "P. falciparum D6", "value": 0.015, "unit": "µg/mL"},
      {"measurement": "C235 (SYBR Green Assay IC50)", "setting": "P. falciparum C235", "value": 0.013, "unit": "µg/mL"},
      {"measurement": "Rhesus Results", "setting": "P. cynomolgi; 65 mg/kg once weekly", "value": "prophylaxis"},
      {"measurement": "Rhesus Results", "setting": "P. cynomolgi; 65 mg/kg/day × 7 days", "value": "malaria cures"},
      {"measurement": "malaria parasitemia, prophylactic drug, rhesus P. cynomolgi relapsing model", "setting": "P. cynomolgi; dosed once weekly (65 mg, PO)", "value": "prevented malaria parasitemia"},
      {"measurement": "tolerability", "setting": "P. cynomolgi; rhesus monkey, in vivo, 316 mg/kg", "value": "well tolerated"}
    ]},
    {"compound": "NC1(CNC2═NC(═NC(═N2)C2═CC═C(C═C2)C2═CC═CC═C2)C(Cl)(Cl)Cl)CCCC1 [Compound 672]", "values": [
      {"measurement": "In vivo Results Thompson Assay (n/N Cures or Suppressive)", "setting": "P. berghei; (80 × 3): 80 mg/kg for 3 days", "value": "(80 × 3) 4/4 Cures"},
      {"measurement": "W2", "setting": "P. falciparum W2", "value": 30, "unit": "ng/mL"},
      {"measurement": "D6", "setting": "P. falciparum D6", "value": 46, "unit": "ng/mL"},
      {"measurement": "C235", "setting": "P. falciparum C235", "value": 68, "unit": "ng/mL"},
      {"measurement": "hERG", "setting": "[1]; hERG activity as % inhibition", "value": 33, "unit": "%"}
    ]},
    {"compound": "NC1CCN(CC1)c2nc(nc(n2)C(Cl)(Cl)Cl)c3ccc(cc3)C(Cl)(Cl)Cl [Compound 743]", "values": [
      {"measurement": "In vivo Results Thompson Assay (n/N Cures or Suppressive)", "setting": "P. berghei; (40 × 3): 40 mg/kg for 3 days", "value": "Suppressive"},
      {"measurement": "In vivo Results Thompson Assay (n/N Cures or Suppressive)", "setting": "P. berghei; (80 × 3): 80 mg/kg for 3 days", "value": "(80 × 3) 3/5 Cures; (40 × 3)"},
      {"measurement": "W2", "setting": "P. falciparum W2", "value": 16, "unit": "ng/mL"},
      {"measurement": "D6", "setting": "P. falciparum D6", "value": 22, "unit": "ng/mL"},
      {"measurement": "C235", "setting": "P. falciparum C235", "value": 14, "unit": "ng/mL"},
      {"measurement": "hERG", "setting": "[1]; hERG activity as % inhibition", "value": 15, "unit": "%"}
    ]}
  ]
}
